pIC50: −log10 of the molar value. Where a name gives a salt, the structure may show the parent alone. Non-standard residues stand in square brackets, D forms with d. Residues, ends and D or L forms follow the SMILES beside them. *: point of attachment. Pro(4R-OPh) = O=C(O)[C@@H]1C[C@@H](Oc2ccccc2)CN1; Hyp = O=C(O)[C@@H]1C[C@@H](O)CN1; Bn = c1ccc(C*)cc1; Allyl = C=CC*

The subject of one experiment is Human Peripheral Blood Mononuclear Cells (PBMC) or Enriched Adherent Mononuclear Cells. Nature of the experiment: Cell assay: IL-1β assay with human PBMC or enriched adherent mononuclear cells. In kind it is cell-based. The conditions noted are these: Example 2 table; LPS-stimulated cells, mature IL-1β in supernatant by ELISA. The source says: IL-1β Assay with a Mixed Population of Human Peripheral Blood Mononuclear Cells (PBMC) or Enriched Adherent Mononuclear Cells
Processing of pre-IL-1S by ICE can be measured in cell culture using a variety of cell sources. Human PBMC obtained from healthy donors provides a mixed population of lymphocyte subtypes and mononuclear cells that produce a spectrum of interleukins and cytokines in response to many classes of physiological stimulators. Adherent mononuclear cells from PBMC provides an enriched source of normal monocytes for selective studies of cytokine production by activated cells.
An initial dilution series of test compound in DMSO or ethanol is prepared, with a subsequent dilution into RPMI-10% FBS media (containing 2 mM L-glutamine, 10 mM HEPES, 50 U and 50 ug/ml pen/strep) respectively to yield drugs at 4× the final test concentration containing 0.4% DMSO or 0.4% ethanol. The final concentration of DMSO is 0.1% for all drug dilutions. A concentration titration which brackets the apparent Ki for a test compound determined in an ICE inhibition assay is generally used for the primary compound screen.
We generally test 5-6 compound dilutions and have performed the cellular component of the assay in duplicate, with duplicate ELISA determinations on each cell culture supernatant.
Buffy coat cells isolated from one pint human blood (yielding 40-45 ml final volume plasma plus cells) are diluted with media to 80 ml and LeukoPREP separation tubes (Becton Dickinson) are each overlaid with 10 ml of cell suspension. After 15 min centrifugation at 1500-1800×g, the plasma/media layer is aspirated and then the mononuclear cell layer is collected with a Pasteur pipette and transferred to a 15 ml conical centrifuge tube (Corning). Media is added to bring the volume to 15 ml, gently mix the cells by inversion and centrifuge at 300×g for 15 min. Resuspend the PBMC pellet in a small volume of media, count cells and adjust to 6×10^6 cells/ml.
For the cellular assay, add 1.0 ml of the cell suspension to each well of a 24-well flat bottom tissue culture plate (Corning), 0.5 ml test compound dilution and 0.5 ml LPS solution (Sigma #L-3012; 20 ng/ml solution prepared in complete RPMI media; final LPS concentration 5 ng/ml). The 0.5 ml additions of test compound and LPS are usually sufficient to mix the contents of the wells. Three control mixtures are run per experiment, with either LPS alone, solvent vehicle control, and/or additional media to adjust the final culture volume to 2.0 ml. The cell cultures are incubated for 16-18 hr at 37° C. in the presence of 5% CO2.
At the end of the incubation period, cells are harvested and transferred to 15 ml conical centrifuge tubes. After centrifugation for 10 min at 200×g, supernatants are harvested and transferred to 1.5 ml Eppendorf tubes. It may be noted that the cell pellet may be utilized for a biochemical evaluation of pre-IL-1S and/or mature IL-1β content in cytosol extracts by western blotting or ELISA with pre-IL-1β specific antisera.
PBMC are isolated and prepared as described above. Media (1.0 ml) is first added to wells followed by 0.5 ml of the PBMC suspension. After a one hour incubation, plates are gently shaken and nonadherent cells aspirated from each well. Wells are then gently washed three times with 1.0 ml of media and final resuspended in 1.0 ml media. The enrichment for adherent cells generally yields 2.5−3.0×10^5 cells per well. The addition of test compounds, LPS, cell incubation conditions and processing of supernatants proceeds as described above.
We have used Quantikine kits (R&D Systems) for measurement of mature IL-1β. Assays are performed according to the manufacturer's directions. Mature IL-1β levels of about 1-3 ng/ml in both PBMC and adherent mononuclear cell positive controls are observed. ELISA assays are performed on 1:5, 1:10 and 1:20 dilutions of supernatants from LPS-positive controls to select the optimal dilution for supernatants in the test panel.
(ELISA stands for enzyme-linked immunosorbent assay.)
By pIC50 is commonly meant −log10 of the IC50, conventionally taken in molar units. The low end stands for a high IC50, the high end for a low IC50. Consider `C[C@@H](C(=O)N[C@H](C=O)CC(=O)O)n1cccc(NC(=O)CCc2ccccc2)c1=O` [Compound 54a], for which the pIC50 was 5.40 to 5.70.

Still in this experiment, the particulars now being: Homo sapiens, PBMC, Example 2 table; LPS-stimulated cells, mature IL-1β in supernatant by ELISA.
In turn, `C[C@H](NC(=O)c1cnc(CCc2ccccc2)[nH]1)C(=O)N[C@H](C=O)CC(=O)O` [Compound 33a, (3S)3-{N-[2-(2-Phenylethyl)imidazole-4-carbonyl]-L-alaninyl}amino-4-oxobutanoic acid] showed a negative logarithm of the IC50 (pIC50) of 4.60. `C[C@H](NC(=O)c1cnc(Cc2ccccc2)[nH]1)C(=O)N[C@H](C=O)CC(=O)O` [Compound 33c, (3S)3-[N-(2-Benzylimidazole-4-carbonyl)-L-alaninyl]amino-4-oxobutanoic acid] gave a pIC50 of 4.70. The pIC50 values of the last two compounds are within 0.2 log units of each other. The compound `CC(=O)N[C@@H](Cc1ccc(O)cc1)C(=O)N[C@H](C(=O)N1C[C@H](OCc2ccccc2)C[C@H]1C(=O)N[C@H](C=O)CC(=O)O)C(C)C` [Compound K, N-[N-Acetyl-tyrosinyl-valinyl-(4-benzyloxy)prolinyl]-3-amino-4-oxobutanoic acid] (Ac-YV[Hyp](Bn)D-aldehyde) showed a pIC50 of 4.96 to 5.70. Still for that read-out and setting: with `CC(=O)N[C@@H](Cc1ccc(O)cc1)C(=O)N[C@H](C(=O)N1C[C@H](Oc2ccccc2)C[C@H]1C(=O)N[C@H](C=O)CC(=O)O)C(C)C` [I, N-(N-Acetyl-tyrosinyl-valinyl-(4-phenoxyprolinyl))-3-amino-4-oxobutanoic acid] (Ac-YV[Pro(4R-OPh)]D-aldehyde) the figure was 5.59; with `CC(=O)N[C@@H](Cc1ccc(O)cc1)C(=O)N[C@H](C(=O)N1C[C@H](O)C[C@H]1C(=O)N[C@H](C=O)CC(=O)O)C(C)C` [J, N-[N-Acetyl-tyrosinyl-valinyl-(4-hydroxyprolinyl)]-3-amino-4-oxobutanoic acid] (Ac-YV[Hyp]D-aldehyde), 5.15 to 5.30.

The experiment is the same for the next values; noted with them: Homo sapiens, PBMC, Example 4 table; LPS-stimulated cells, mature IL-1β in supernatant by ELISA.
In turn, `CC(C)[C@H](NC(=O)OCc1ccccc1)C(=O)N[C@@H](C)C(=O)N[C@H](CC(=O)O)C(=O)COCc1c(Cl)cccc1Cl` (mixture of isomers) [Compound 84a, (R,S)N-[N-(Phenylmethyloxy)carbonyl-valinyl-alaninyl]-3-amino-5-(2,6-dichlorophenylmethyloxy)-4-oxo-pentanoic acid] showed a pIC50 of 5.48. Take `C[C@H](NC(=O)c1nc(CCCc2ccccc2)c[nH]1)C(=O)N[C@H](C=O)CC(=O)O` [Compound 20d, (3S)3-{N-[4-(3-Phenylpropyl)imidazole-2-carbonyl]-L-alaninyl}amino-4-oxo-butanoic acid]: the negative logarithm of the IC50 (pIC50) was 5.21. Against the preceding compound, the pIC50 is 0.27 log units lower.

As to `C[C@H](NC(=O)c1cnc(CCc2ccccc2)[nH]1)C(=O)N[C@H](C=O)CC(=O)O` [Compound 33a, (3S)3-{N-[2-(2-Phenylethyl)imidazole-4-carbonyl]-L-alaninyl}amino-4-oxobutanoic acid], the pIC50 was 4.60. Compound `C[C@H](NC(=O)c1cnc(Cc2ccccc2)[nH]1)C(=O)N[C@H](C=O)CC(=O)O` [Compound 33c, (3S)3-[N-(2-Benzylimidazole-4-carbonyl)-L-alaninyl]amino-4-oxobutanoic acid] showed a pIC50 of 4.70. This pIC50 and that of the compound before are within 0.2 log units of each other.

For `C[C@@H](C(=O)N[C@H](C=O)CC(=O)O)n1cccc(NC(=O)CCc2ccccc2)c1=O` [Compound 54a], the pIC50 was 5.57.

As to `O=C[C@H](CC(=O)O)NC(=O)Cn1c(Cc2ccccc2)ccc(NC(=O)CCc2ccccc2)c1=O` [Compound 54b, 3(S)3-(6-Benzyl-1,2-dihydro-2-oxo-3-(3-phenylpropionyl)amino-1-pyridyl)acetylamino-4-oxobutanoic acid], the pIC50 is 5.04.

Staying with this experiment, now noted: Homo sapiens, PBMC, Example 6 table; LPS-stimulated cells, mature IL-1β in supernatant by ELISA.
With `CC(C(=O)N[C@H](C=O)CC(=O)O)N1CCN(Cc2ccccc2)C[C@H](NC(=O)OCc2ccccc2)C1=O` (mixture of isomers) [Compound 114a, 3(S)-{2(R,S)-[4-Benzyl-7-oxo-6(S)-(N-benzyloxycarbonylamino)-[1,4]diazepan-1-yl]-propionylamino}-4-oxo-butyric acid trifluoroacetic acid salt], the pIC50 was 5.42. Still for that read-out and setting: then `CC(C(=O)N[C@H](C=O)CC(=O)O)N1CCN(C(=O)CCc2ccccc2)C[C@H](NC(=O)CCc2ccccc2)C1=O` (mixture of isomers) [Compound 115, 4-Oxo-3(S)-{2(R,S)-[7-oxo-4-(3-phenyl-propionyl)-6(S)-(3-phenyl-propionylamino)-[1,4]diazepan-1-yl]-propionylamino}-butyric acid], with 5.22; and `COc1ccc(CCCc2cnc(C(=O)N3C[C@H](Oc4ccccc4)C[C@H]3C(=O)N[C@H](C=O)CC(=O)O)[nH]2)cc1` [Compound 22e, 3(S)-[(1-{5-[3-(4-Methoxyphenyl)propyl]-1H-imidazole-2-carbonyl}-4(R)-phenoxypyrrolidine-2(S)-carbonyl)amino]-4-oxobutanoic acid], with less than 4.70.

Compound `O=C[C@H](CC(=O)O)NC(=O)Cn1c(Cc2ccccc2)ccc(NC(=O)CCc2ccccc2)c1=O` [Compound 54b, 3(S)3-(6-Benzyl-1,2-dihydro-2-oxo-3-(3-phenylpropionyl)amino-1-pyridyl)acetylamino-4-oxobutanoic acid] had a negative logarithm of the IC50 (pIC50) of 4.70. The same measure, in the same setting: with `C=CCO[C@@H]1C[C@@H](C(=O)N[C@H](C=O)CC(=O)O)N(C(=O)[C@@H](NC(=O)[C@H](Cc2ccc(O)cc2)NC(C)=O)C(C)C)C1` [Compound 85, N-(N-Acetyl-tyrosinyl-valinyl-(4(R)-allyloxyprolinyl))-3(S)-amino-4-oxobutanoic acid] (Ac-YV[Hyp](Allyl)D-aldehyde) the figure was 5.01. Same read-out and setting: with `O=C(O)C[C@H](NC(=O)[C@@H]1CCc2ncc(NC(=O)CCc3ccccc3)c(=O)n21)C(=O)COC(=O)c1c(Cl)cccc1Cl` [Compound 102a, 2,6-Dichloro-benzoic acid 4-carboxy-2-oxo-(3S)-{[4-oxo-3-(3-phenyl-propionylamino)-4,6,7,8-tetrahydro-pyrrolo[1,2-a]pyrimidine-(6S)-carbonyl]-amino}-butyl ester] the figure was 5.40. Take `C[C@H](NC(=O)CN1C(=O)[C@@H](NC(=O)CCc2ccccc2)CN(C(=O)CCc2ccccc2)c2ccccc21)C(=O)C(=O)O` [Compound 106b, 2-Oxo-3(S)-{2-[2-oxo-5-(3-phenylpropionyl)-3(S)-(3-phenyl-propionyl-amino)-2,3,4,5-tetrahydrobenzo[b][1,4]diazepin-1-yl]acetylamino}butyric acid]: the pIC50 is 5.54. Same read-out and setting: then `O=C(O)C[C@H](NC(=O)CN1C(=O)[C@@H](NC(=O)CCc2ccccc2)CN(C(=O)CCc2ccccc2)c2ccccc21)C(=O)COC(=O)c1c(Cl)cccc1Cl` [Compound 108a, 2,6-Dichlorobenzoic acid 4-carboxy-2-oxo-3(S)-{2-[2-oxo-5-(3-phenylpropionyl)-3(S)-(3-phenylpropionylamino)-2,3,4,5-tetrahydrobenzo[b][1,4]diazepin-1-yl]acetylamino}butyl ester], with 4.76; and `C[C@@H](C(=O)N[C@@H](CC(=O)O)C(=O)COC(=O)c1c(Cl)cccc1Cl)n1cccc(NC(=O)CCc2ccccc2)c1=O` [Compound 130], with 5.92; and `O=C(O)C[C@H](NC(=O)[C@@H]1CCCN2C(=O)CC[C@H](NC(=O)CCc3ccccc3)C(=O)N12)C(=O)COC(=O)c1c(Cl)cccc1Cl` [Compound 136], with 6.00.

In the case of `CS(=O)(=O)N[C@H]1CCC(=O)N2CCC[C@@H](C(=O)N[C@@H](CC(=O)O)C(=O)COC(=O)c3c(Cl)cccc3Cl)N2C1=O` [Compound 138], the negative logarithm of the IC50 (pIC50) was 6.43. Same read-out and setting: with `C[C@H](NC(=O)c1ncc[nH]1)C(=O)N[C@@H](CC(=O)O)C(=O)COC(=O)c1c(Cl)cccc1Cl` [Compound 142] the figure was 5.76.

(Values after US20110015371A1 (Vertex Pharmaceuticals Incorporated, priority 1994, published 2011).)
